According to patent US20210395313A1, “PEPTIDE PAC1 ANTAGONISTS” (AMGEN INC., priority 2017, published 2021):
Bridges are numbered along the chain shown (N, C = ends). Where no end group is shown, it is not given here.

How the values were obtained:
human PAC1 receptor = biological target: T1, human PAC1 receptor (Homo sapiens, UniProt P41586); test: LANCE Ultra cAMP accumulation antagonist assay in SHSY-5Y cells; assay type: cell-based;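 further: inhibition of cAMP accumulation evoked by PAC1 agonist at its EC80 in SHSY-5Y cells endogenously expressing receptor, 30 min preincubation then 15 min agonist, TR-FRET readout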
T1 construct: SHSY-5Y (human neuroblastoma cell line) and RG-2 (rat glioma cell line) cells endogenously express human and rat PAC1 receptors, respectively; endogenous in cells; host or cells: SHSY-5Y human neuroblastoma cells
T1 sequence (P41586 21-468): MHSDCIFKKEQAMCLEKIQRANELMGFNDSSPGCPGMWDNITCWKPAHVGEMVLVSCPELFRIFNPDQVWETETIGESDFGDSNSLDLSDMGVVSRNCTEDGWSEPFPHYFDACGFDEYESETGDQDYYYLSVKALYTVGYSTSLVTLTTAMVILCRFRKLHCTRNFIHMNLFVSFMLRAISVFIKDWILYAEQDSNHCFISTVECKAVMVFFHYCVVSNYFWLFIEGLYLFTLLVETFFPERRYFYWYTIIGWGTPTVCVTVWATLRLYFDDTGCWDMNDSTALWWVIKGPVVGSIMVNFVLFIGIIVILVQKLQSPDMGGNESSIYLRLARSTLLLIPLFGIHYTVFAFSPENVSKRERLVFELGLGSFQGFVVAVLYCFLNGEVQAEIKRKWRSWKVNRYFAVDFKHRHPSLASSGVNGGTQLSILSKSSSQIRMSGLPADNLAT

rat PAC1 receptor [1] = biological target: T2, rat PAC1 receptor (Rattus norvegicus, UniProt P32215); test: LANCE Ultra cAMP accumulation antagonist assay in RG-2 cells; assay type: cell-based;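 further: RG-2 rat glioma cells endogenously expressing PAC1, test peptide preincubated 30 min, then PAC1 agonist added at its EC80 for 15 min, cAMP accumulation read by LANCE Ultra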
T2 construct: SHSY-5Y (human neuroblastoma cell line) and RG-2 (rat glioma cell line) cells endogenously express human and rat PAC1 receptors, respectively; endogenous in cells; host or cells: RG-2 rat glioma cells
T2 sequence (P32215 20-523): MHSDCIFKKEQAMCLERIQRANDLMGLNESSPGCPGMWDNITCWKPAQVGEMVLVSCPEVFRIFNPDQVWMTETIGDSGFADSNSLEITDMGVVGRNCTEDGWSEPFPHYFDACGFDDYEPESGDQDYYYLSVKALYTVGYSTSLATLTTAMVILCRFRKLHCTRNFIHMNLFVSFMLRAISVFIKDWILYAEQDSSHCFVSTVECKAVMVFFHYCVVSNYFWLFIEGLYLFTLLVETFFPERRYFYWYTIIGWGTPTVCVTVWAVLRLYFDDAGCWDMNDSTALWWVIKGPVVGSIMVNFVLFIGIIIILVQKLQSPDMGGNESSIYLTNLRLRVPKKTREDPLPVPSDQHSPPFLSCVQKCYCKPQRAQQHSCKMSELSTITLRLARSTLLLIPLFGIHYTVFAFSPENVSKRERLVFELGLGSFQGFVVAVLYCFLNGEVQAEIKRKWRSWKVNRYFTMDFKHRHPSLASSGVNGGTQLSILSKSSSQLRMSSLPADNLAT

in vitro = conditions: rat, plasma
Procedure: (§1) To model degradation in blood, PAC1 peptides of the present application were incubated in vitro with rat plasma. The stability analysis was conducted in a manner similar to as previously described by Souverain et al. (J. of Pharmaceutical and Biomedical Analysis, 35 (2004) 913-920).
(§2) Briefly, PAC1 peptides were spiked into rat plasma and incubated at 37° C. for up to 6 hours. Employing the reverse stability technique for various time points, plasma samples were quenched by the addition of perchloric acid in water containing internal standard (IS) and vortexed undergoing protein precipitation extraction (PPE). Following the vortex mix, samples were centrifuged and the supernatant containing PAC1 peptide and IS was subsequently analyzed using a liquid chromatography mass-spectrometry (LC-MS) system (Sciex® API 5500). The peak area ratio of intact PAC1 peptide to IS was determined for each time point. Peptide stability was reported as a percentage of the peak area ratio at each time point relative to the peak are ratio of a baseline sample (pre-incubation).

PAC1 = biological target: T3, PAC1 (Rattus norvegicus, UniProt P32215); test: Rat maxadilan-induced increase in blood flow (MIIBF) PD model, laser Doppler imaging; assay type: in vivo
T3 construct: Naive male Sprague Dawley® rats aged 8-12 weeks at the time of the study were purchased from Charles River Laboratories; tissue Charles River Laboratories; host or cells: live male Sprague Dawley rats; dermal blood flow on abdominal skin
T3 sequence (P32215 20-523): T2 sequence (P32215 20-523)
Procedure: PAC1 peptide antagonists were also evaluated in an in vivo pharmacodynamic model—a model of maxadilan-induced increase in blood flow.
Naive male Sprague Dawley® rats aged 8-12 weeks at the time of the study were purchased from Charles River Laboratories. Animals were group-housed in non-sterile, ventilated micro-isolator housing in Amgen Assessment and Accreditation of Laboratory Animal Committee (AAALAC)-accredited facility. Animals had ad libitum access to pelleted feed (Harlan Teklad 2020X, Indianapolis, IN) and water (on-site generated reverse osmosis) via automatic watering system.
All PAC1 peptides were tested in a rat maxadilan-induced increase in blood flow (MIIBF) pharmacodynamic (PD) model with a laser Doppler imaging. A dosing solution of maxadilan (Bachem, H6734.0500) was prepared fresh daily by diluted maxadilan stock solution (0.5 mg/mL) in 1× PBS to the final concentration of 0.5 μg/mL. All tested peptides were prepared in 1× PBS at different concentrations depend on the dose required for the experiment and given in a single bolus i.v. or s.c. injection. A laser Doppler imager (LDI-2, Moor Instruments, Ltd, Wilmington, Del.) was used to measure dermal blood flow (DBF) on the shaved skin of the rat abdomen with a low-power laser beam generated by a 633 nm helium-neon bulb. The measurement resolution was 0.2 to 2 mm, with scanning distances between the instrument aperture and the tissue surface of 30 cm. In this report, DBF was measured and expressed as % change from baseline [100×(individual post-CAP flux-individual baseline flux)/individual baseline flux] and further calculated to % Inhibition to quantify the magnitude of drug effect [Mean of vehicle % change from BL−individual drug treated rat % change from BL)/Mean of vehicle % change from BL].
On the test day, following anesthetization with propofol, the rat's abdominal area was shaved and each animal was placed in a supine position on a temperature-controlled circulating warm-water pad to maintain a stable body temperature during the study. After a 10 to 15 minute stabilization period, a rubber O-ring (0.925 cm inner diameter, O-Rings West, Seattle, Wash.) was placed on the rat abdomen without directly positioning it over a visible blood vessel while the rat placed in a supine position on a temperature-controlled circulating warm-water pad to maintain a stable body temperature during the study. After placement of an O-ring on the selected area, a baseline (BL) DBF measurement was taken. After the BL scan, PAC1 peptides were administrated either 5 min for i.v., or 15 min for s.c. then followed by 20 μL (in 0.5 μg/mL) intradermal injection of maxadilan at the center of the O-ring. The post-maxadilan DBF was measured at 30 min and the post peptides time was 35 min for i.v. and 45 min for s.c. respectively. The O-ring serves as an area of interest in which the DBF will be analyzed within the O-ring.
All DBF results were expressed as the mean±SEM. A one-way ANOVA followed by Dunnett's Multiple Comparison Test (MCT) was used to assess the statistical significance of PAC1 peptides effects relative to the vehicle within the study. A p<0.05 was used to determine significance between any two groups.

[2] = rat plasma, 37° C., 0 h (baseline)
Procedure: as §1, §2

rat PAC1 receptor [3] = biological target: T4, rat PAC1 receptor (rat, UniProt P32215 20-523); test: cell-based or functional assay
T4 sequence: T2 sequence (P32215 20-523)
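Wherever % Intact Peptide Remaining is given: peptides incubated in vitro in rat plasma at 37 °C up to 6 h, intact peptide quantified by LC-MS versus internal standard, expressed relative to pre-incubation baseline (100%).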

Molecule “CDATCQFRKAIDDCYYRSWHSNVPGSVFKACMKQKKKEWKAG-NH2 (disulfide 1-5, 14-31) [SEQ ID NO 77]” has an IC50 (human PAC1 receptor) of 0.01 to 1 nM, an IC50 (rat PAC1 receptor [1]) of 0.01 to 1 nM and a remaining at 0.5 h (in vitro) of 97.9%. For the same molecule, the remaining at 1 h (in vitro) was 106%, the remaining at 2 h (in vitro) was 104% and the remaining at 4 h (in vitro) was 89.6%. For the same molecule, the remaining at 6 h (in vitro) was 110%, the “inhibition of maxadilan-induced increase in DBF” value (PAC1; single bolus s.c., lowest dose of 0.3 mg/kg, 15 min prior to maxadilan, 45 min post peptide treatment) was “statistically significant inhibition” and the “% Intact Peptide Remaining” value [2] was 100%.

Molecule `CC[C@H](C)[C@H](NC(=O)[C@H](C)NC(=O)[C@H](CCCCN)NC(=O)[C@H](CCCNC(=N)N)NC(=O)[C@H](Cc1ccccc1)NC(=O)[C@H](CCC(N)=O)NC(=O)[C@@H]1CSSC[C@H](N)C(=O)N[C@@H](CC(=O)O)C(=O)N[C@@H](C)C(=O)N[C@@H]([C@@H](C)O)C(=O)N1)C(=O)N[C@@H](CC(=O)O)C(=O)N[C@@H](CC(=O)O)C(=O)N[C@H]1CSSC[C@@H](C(=O)N[C@@H](CCSC)C(=O)N[C@@H](CCCCN)C(=O)N[C@@H](CCC(N)=O)C(=O)N[C@@H](CCCCN)C(=O)N[C@@H](CCCCN)C(=O)N[C@@H](CCCCN)C(=O)N[C@@H](CCC(=O)O)C(=O)N[C@@H](Cc2ccccc2)C(=O)N[C@@H](CCCCN)C(=O)N[C@@H](C)C(=O)NCC(N)=O)NC(=O)C(C)(C)NC(=O)[C@H](CCCCN)NC(=O)[C@H](Cc2ccccc2)NC(=O)[C@H](C(C)C)NC(=O)[C@H](CO)NC(=O)CNC(=O)[C@@H]2CCCN2C(=O)[C@H](C(C)C)NC(=O)[C@H](CC(N)=O)NC(=O)[C@H](CO)NC(=O)[C@H](Cc2c[nH]cn2)NC(=O)[C@H](Cc2c[nH]cn2)NC(=O)[C@H](C)NC(=O)[C@H](CCC(N)=O)NC(=O)[C@H](CCCCN)NC(=O)[C@H](CCC(N)=O)NC1=O` [SEQ ID NO 283] has an IC50 (human PAC1 receptor) of 1 to 100 nM, an IC50 (rat PAC1 receptor [1]) of 0.01 to 1 nM and a remaining at 0.5 h (in vitro) of 87.5%. For the same molecule, the remaining at 1 h (in vitro) was 112%, the remaining at 2 h (in vitro) was 101% and the remaining at 4 h (in vitro) was 115%. The remaining at 6 h (in vitro) was 98.9%, the “inhibition of MIIBF (dermal blood flow)” value (PAC1; single bolus i.v., lowest dose of 0.1 mg/kg, 5 min prior to maxadilan, 35 min post peptide treatment) was “statistically significant inhibition” and the “% Intact Peptide Remaining” value [2] was 100%.

B1: SEQ ID NO 449 (peptide)
peptide: CDATCQFRKAIDDCARQAYHSACMKQKKKEWKAGH
modifications: disulfide 1-5, 14-23
In the case of B1, the “rPAC1 IC50 with maxadilan challenge (cAMP assay, RG-2 cells); 100 nM > B ≥ 1 nM” value (from here on “rPAC1 IC50 with maxadilan challenge”) (rat PAC1 receptor [3]) is reported as < 100 nM.

B2: SEQ ID NO 450 (peptide)
peptide: CDATCQFRKAIDDCARQAYHSFKACMKQKKKEWKH
modifications: disulfide 1-5, 14-25
In the case of B2, the “rPAC1 IC50 with maxadilan challenge” value (rat PAC1 receptor [3]) is reported as < 100 nM.

B3: SEQ ID NO 451 (peptide)
peptide: CDATCQFRKAIDDCARQAYHSFKACMKQKKKEWKAH
modifications: disulfide 1-5, 14-25
With B3 the “rPAC1 IC50 with maxadilan challenge” value (rat PAC1 receptor [3]) was < 100 nM.
